In patent publication US20250281679A1, “BIOMIMETIC COATING FOR ENDOVASCULAR STENT” (INSERM (Institut National de la Santé et de la Recherche …, priority 2021, published 2025):
Bridge positions count the residues as written; N and C are the ends. Square brackets hold non-standard residues; d marks the D form. Primed or numbered codes have the meaning given here. Ends that are not written are not given here. * marks the point of attachment. Lys(N3) = [N-]=[N+]=NCCCC[C@H](N)C(=O)O; Ttds = NCCCOCCOCCOCCCNC(=O)CCC(=O)*; hCys = N[C@@H](CCS)C(=O)O; PEG4′ = not defined here

How the values were obtained:
[1] = system: Human aortic endothelial cells; test: Human aortic endothelial cells grown 48 h on bare or peptide-coated nitinol disks; F-actin and CD31 fluorescence image analysis; type: cell-based; conditions: for CD31 expression, Integrated Density / F-actin expression (cellular stress), Integrated Density: HAEC 48 h on coated nitinol disks; for CD31 expression, Integrated Density: anti-CD31 domain 1 antibody, compared to other modified disks and bare controls, FIGS. 2, 4, 5; for ratio between CD31 and F-actin expression: compared to bare metal and disks coated with PDA only, FIG. 6; for CD31/Actin score: Example 2, FIG. 25, compared to bare metal disks or disks coated with PDA alone; for F-actin expression (cellular stress), Integrated Density: phalloidin staining, compared to bare metal, FIGS. 2, 3, 5
Protocol: Nitinol disks are left untouched (bare metal) or coated with a domain 1, domain 2 or domain 1 and 2 CD31 analog peptide. The tested peptide is grafted to the nitinol disk following a polydopamine, DBCO-PEG4-amine and azide CD31 derivative peptide using a sequential dip-coating layering procedure. After this step, all the disks are incubated with Human aortic endothelial cells for 48h. Disks are then rinsed and the cells are fixed in a formalin solution before staining. The staining is fulfilled using phalloidin coupled to AlexaFluor®488 dye (green fluorescence for Actin), DAPI is used for DNA staining and a domain 1 CD31 antibody coupled to APC is used for external Domain 1 staining. The cell adhesion and Actin/CD31 expression was evaluated by image analysis of the surface after staining.
In particular, as per FIG. 2 the bare or coated nitinol disks were placed at the bottom of culture wells. Primary Human Aortic Endothelial Cells (HAEC) were allowed to grow on the disks for a period of 48 h. The disks were thereafter rinsed with phosphate buffered saline, fixed in formalin, and processed for fluorescence microscopy. Disk-adherent cells were immersed in a solution comprising Hoechst 33342 (1 μg/ml, to stain the nuclei), phalloidin coupled to AlexaFluor®488 dye (0.5 μM, to stain F-actin fibers) and a monoclonal antibody directed against CD31 domain 1, coupled to allophycocyanin (to detect the presence and localization of intact CD31 at the cell surface) for 1 hour at 37° C., washed and mounted face down on glass bottom imaging chambers for imaging with an inverted fluorescence microscope.
Surface type is indicated on the Y axis, data are expressed as average±SD (N=6/surface type). Each dot corresponds to a specific surface modification. The F-actin expression relates the cellular stress of the cell in presence of the exogenous material.
In FIG. 4 the surface type is indicated on the Y axis. Each dot corresponds to a specific surface modification. Data are expressed as “Integrated Density” average±SD (N=6/surface type). CD31 expression relates the capacity of endothelial cells to adopt a physiologic phenotype while growing on a given substrate. An important variability is observed in terms of CD31 expression by HAEC according to the surface modification of the nitinol disks.
The effect of different peptides, belonging to the different groups, were tested in batches following the same protocol as in FIG. 6. Different peptides from each group were tested in batches and the effect of individual peptides was repeatedly assessed in separate experiments. Data from all experiments were obtained by computer-assisted analysis of images of the disk side covered with endothelial cells, captured in the blue, green and red channel of an inverted fluorescence microscope. The functional score of the peptides belonging to the different groups was calculated by multiplying the number of cells (as detected by the number of blue, Dapi+ nuclei) for the integrated density of CD31 expression (red signal provided by the binding of a mouse anti-human CD31 monoclonal antibody, clone 9G11, conjugated allophycocyanin) and their product being divided for the integrated density of the F-actin polymerization (Phalloidin coupled to a green fluorochrome).
The same protocol as in Example 1 was followed, using peptides according to the invention (SP547, SP548 SP745, SP1374, SP1072, SP1070, SP1071, SP1379 and SP1383) as defined above and the prior art peptide P8RI of sequence KWPALFVR (SEQ ID NO: 52).
The “CD31/Actin” score, resulting from the integrated density of CD31 immunostaining signal divided by the signal of phalloidin, which binds to the polymerized F-actin of the cytoskeleton, has been used to identify the physiological/non-stressed character of the arterial endothelial cells growing onto the surface of experimental disks placed at the bottom of culture wells. […]

CD31 = conditions: soluble peptide; cited from earlier work
endothelial cells = conditions: immobilized peptide, cited from earlier work
[2] = immobilized peptide, in vivo; cited from earlier work

Ac-K(N3)-(Ttds)4-PRhCTLDKKEAIQGGIVRVNhCSVPEEK-CONH2 ({Ac-Lys(N3)-Ttds-Ttds-Ttds-Ttds}-PR[hCys]TLDKKEAIQGGIVRVN[hCys]SVPEEK-NH2; disulfide 3-20) [SP1380]
CD31 expression, Integrated Density [1]: evident positive effect in terms of CD31 expression | ratio between CD31 and F-actin expression [1]: higher CD31/actin ratio

Ac-K(N3)-GGSGGSGG-YKDDVLFYNISSMKST-NH2 (Ac-[Lys(N3)]GGSGGSGGYKDDVLFYNISSMKST-NH2; SMILES CC[C@H](C)[C@H](NC(=O)[C@H](CC(N)=O)NC(=O)[C@H](Cc1ccc(O)cc1)NC(=O)[C@H](Cc1ccccc1)NC(=O)[C@H](CC(C)C)NC(=O)[C@@H](NC(=O)[C@H](CC(=O)O)NC(=O)[C@H](CC(=O)O)NC(=O)[C@H](CCCCN)NC(=O)[C@H](Cc1ccc(O)cc1)NC(=O)CNC(=O)CNC(=O)[C@H](CO)NC(=O)CNC(=O)CNC(=O)[C@H](CO)NC(=O)CNC(=O)CNC(=O)[C@H](CCCCN=[N+]=[N-])NC(C)=O)C(C)C)C(=O)N[C@@H](CO)C(=O)N[C@@H](CO)C(=O)N[C@@H](CCSC)C(=O)N[C@@H](CCCCN)C(=O)N[C@@H](CO)C(=O)N[C@H](C(N)=O)[C@@H](C)O) [SP547]
CD31/Actin score [1]: equivalent to those of sections coated by other peptides according to the invention

Ac-K(N3)-PEG4-PRVTLDKKEAIQGGIVRVNSSVPEEK-CONH2 (Ac-[Lys(N3)][PEG4′]PRVTLDKKEAIQGGIVRVNSSVPEEK-NH2) [SP1071]
CD31/Actin score [1]: significantly higher

Ac-YKDDVLFYNISSMKST-GGSGGSGG-K(N3)-NH2 (Ac-YKDDVLFYNISSMKSTGGSGGSGG[Lys(N3)]-NH2; SMILES CC[C@H](C)[C@H](NC(=O)[C@H](CC(N)=O)NC(=O)[C@H](Cc1ccc(O)cc1)NC(=O)[C@H](Cc1ccccc1)NC(=O)[C@H](CC(C)C)NC(=O)[C@@H](NC(=O)[C@H](CC(=O)O)NC(=O)[C@H](CC(=O)O)NC(=O)[C@H](CCCCN)NC(=O)[C@H](Cc1ccc(O)cc1)NC(C)=O)C(C)C)C(=O)N[C@@H](CO)C(=O)N[C@@H](CO)C(=O)N[C@@H](CCSC)C(=O)N[C@@H](CCCCN)C(=O)N[C@@H](CO)C(=O)N[C@H](C(=O)NCC(=O)NCC(=O)N[C@@H](CO)C(=O)NCC(=O)NCC(=O)N[C@@H](CO)C(=O)NCC(=O)NCC(=O)N[C@@H](CCCCN=[N+]=[N-])C(N)=O)[C@@H](C)O) [SP548]
CD31/Actin score [1]: equivalent to those of sections coated by other peptides according to the invention

KWPALFVR [P8RI, prior art CD31-mimetic octa-peptide]
action on CD31 (CD31): acts like a CD31 agonist | adhesion of endothelial cells (endothelial cells; in vitro): increases the adhesion of endothelial cells in vitro | blood element reaction (endothelial cells): reduces the blood element reaction | integration of endovascular devices [2]: enhances the integration of endovascular devices in vivo

RDQNFVILEFP-PEG4-K(N3)-NH2 [SP1070]
CD31/Actin score [1]: significantly higher | F-actin expression (cellular stress), Integrated Density [1]: does not show an influence on the cellular stress

SHQMLFYKDDVLFYNISSS-GGSGGSGG-K(N3)-CONH2 (SHQMLFYKDDVLFYNISSSGGSGGSGG[Lys(N3)]-NH2; N-terminus assumed; SMILES CC[C@H](C)[C@H](NC(=O)[C@H](CC(N)=O)NC(=O)[C@H](Cc1ccc(O)cc1)NC(=O)[C@H](Cc1ccccc1)NC(=O)[C@H](CC(C)C)NC(=O)[C@@H](NC(=O)[C@H](CC(=O)O)NC(=O)[C@H](CC(=O)O)NC(=O)[C@H](CCCCN)NC(=O)[C@H](Cc1ccc(O)cc1)NC(=O)[C@H](Cc1ccccc1)NC(=O)[C@H](CC(C)C)NC(=O)[C@H](CCSC)NC(=O)[C@H](CCC(N)=O)NC(=O)[C@H](Cc1c[nH]cn1)NC(=O)[C@@H](N)CO)C(C)C)C(=O)N[C@@H](CO)C(=O)N[C@@H](CO)C(=O)N[C@@H](CO)C(=O)NCC(=O)NCC(=O)N[C@@H](CO)C(=O)NCC(=O)NCC(=O)N[C@@H](CO)C(=O)NCC(=O)NCC(=O)N[C@@H](CCCCN=[N+]=[N-])C(N)=O) [SP745]
CD31/Actin score [1]: significantly higher

[Ac-K(N3)-(Ttds)4-PRVTLDKKEAIQGGIVRVNSSVPEEK-Ttds-K^#(CH2CO)-CONH2]-[QHQMLFYhC^#DDVLFYNISSMK-CONH2] (chain 1 {Ac-Lys(N3)-Ttds-Ttds-Ttds-Ttds}-PRVTLDKKEAIQGGIVRVNSSVPEEK-{Ttds-K(CH2CO)-NH2}; chain 2 QHQMLFY[hCys]DDVLFYNISSMK-NH2; also: thioether at chain B 8 to a chain's C-terminus) [SP1383]
CD31/Actin score [1]: significantly higher

[^#CH2CONH2GTYKSTVIVNNKEKTTAEYQ-(Ttds)4-K(N3)-NH2]-[QHQMLFYhC^#DDVLFYNISSMK-CONH2] (chain 1 GTYKSTVIVNNKEKTTAEYQ-{Ttds-Ttds-Ttds-Ttds-Lys(N3)-NH2}; chain 2 QHQMLFY[hCys]DDVLFYNISSMK-NH2; not fully specified (N-terminus); also: thioether at chain B 8 to a chain's N-terminus) [SP1379]
CD31/Actin score [1]: significantly higher

hCHQMLFYKDDVLFYNISShCK-Ttds-Ttds-Ttds-Ttds-K(N3)-CONH2 ([hCys]HQMLFYKDDVLFYNISS[hCys]K-{Ttds-Ttds-Ttds-Ttds-Lys(N3)-NH2}; cysteine pairing not given here) [SP1374]
CD31/Actin score [1]: significantly higher | CD31 expression, Integrated Density ([1]; listed as 1374): evident positive effect in terms of CD31 expression | CD31 expression, Integrated Density ([1]; listed as SP 1374): consistent functional endothelial phenotype (high CD31 expression) | F-actin expression (cellular stress), Integrated Density [1]: low cellular stress (low actin expression) | ratio between CD31 and F-actin expression [1]: higher CD31/actin ratio
